In general, inhibition refers to the share of the control response that was lost under treatment.

Data on 4 molecules can be found in PMC8880564, “Design, Synthesis, and Biological Evaluation of a Novel VEGFR-2 Inhibitor Based on a 1,2,5-Oxadiazole-2-Oxide Scaffold with MAPK Signaling Pathway Inhibition” (Pharmaceuticals, 2022).

Common to all, as to assay type: cell-based
Assay [1] has as its system NCI-59 human cancer cell lines. Description: NCI-60 one-dose SRB screening, full panel and subpanels. To be noted: for inhibition at 10 µM / activity at 10 µM: Homo sapiens; for inhibition at 10 µM / enhancement of the growth percentage (mean): full NCI-59 panel, 10 µM; for inhibition at 10 µM: read-out: mean growth inhibition % (MGI%, GI%); for activity at 10 µM: mean over the full panel, 10 µM one dose, 48 h, SRB, read-out: growth percentage, Mean. The procedure: (§1) The structures of the synthesized compounds 6a–h, 12a–c, 11, 13a–c, and 14a–c were submitted to the National Cancer Institute’s Developmental Therapeutics Program (NCI-DTP), and all of them were selected for preliminary in vitro anticancer activity screening against NCI-59 human cancer cell lines at a concentration of 10 µM, using the sulforhodamine B (SRB) assay to determine the growth percentage and cell viability.
(§2) The in vitro NCI-60 cell line screening assay was conducted at the National Cancer Institute (NCI), Bethesda, USA against 59 cancer cell lines representing 9 types of cancers, as reported earlier. Briefly, the human cancer cell lines were grown in RPMI 1640 medium containing 5% fetal bovine serum and 2 mM L-glutamine and inoculated into 96-well microtiter plates in 100 μL (5000 to 40,000 cells/well). Then, the plates were incubated at 37 °C, 5% CO2, 95% air, and 100% relative humidity for 24 h. After that, two plates of each cell line were fixed in situ with TCA, to represent cell population at time zero (Tz). The tested compounds were dissolved in DMSO at 400-fold and added so that the final concentration became 10 μM. The plates were then incubated for an additional 48 h followed by the addition of cold TCA to terminate the assay in case of adherent cells. Then, the cells were fixed in situ by cold 50% (w/v) TCA (50 μL; final concentration, 10% TCA) and incubated for 1 h at 4 °C. After discarding the supernatant, the plates were washed 5 times with tap water and air dried. Sulforhodamine B (SRB) solution (100 μL) at 0.4% (w/v) in 1% HOAc was added to each well, and plates were incubated for 10 min. at rt. Then, washing with 1% acetic acid was conducted 5 times to remove the unbound dye followed by air drying. After that, 10 mM trizma base was added to solubilize the bound stain, and the absorbance was read on an automated plate reader at a wavelength of 515 nm. On the other hand, the methodology for suspension cells was the same except that 50 μL of 80% TCA (final concentration, 16% TCA) was gently added to terminate the assay by fixing settled cells at the bottom of the wells. Percentage growth inhibition (GI%) was calculated as follows:
(§3) Growth percentage=Ti (test growth in the presence of compound at 10 µM )−Tz (time zero)/C (control growth)−Tz (time zero)×100 for Ti ≥ Tz;
(§4) Growth percentage=Ti (test growth in the presence of compound at 10 µM )−Tz (time zero)/Tz (time zero)×100 for Ti < Tz.
(§5) where values of 100, 40, 0, −40, and −100 mean no GI, 60% GI, no net G, 40% lethality, and all cells are dead, respectively.
Data are expressed as a one-dose mean graph of growth percentages including the mean, delta, and range.

For the next assay, the system named is MCF7. The assay can be described thus: NCI-60 one-dose SRB screening. The conditions noted are these: Homo sapiens, MCF7, Breast Cancer, 10 µM one dose, 48 h, read-out: growth percentage. On the procedure: as §1, §2, §3, §4, §5
For the next assay, the system named is OVCAR-8. The assay can be described thus: NCI-60 one-dose SRB screening. To be noted: Homo sapiens, OVCAR-8, Ovarian Cancer, 10 µM one dose, 48 h, read-out: growth percentage. On the procedure: as §1, §2, §3, §4, §5
The next assay relates to SNB-19. Description: NCI-60 one-dose SRB screening. To be noted: Homo sapiens, SNB-19, CNS Cancer, 10 µM one dose, 48 h, read-out: growth percentage. On the procedure:
as §1, §2, §3, §4, §5

For the next assay, the system named is CAKI-1. Description: NCI-60 one-dose SRB screening. The conditions noted are these: Homo sapiens, CAKI-1, Renal Cancer, 10 µM one dose, 48 h, read-out: growth percentage. The procedure:
as §1, §2, §3, §4, §5

Another assay has as its system RPMI-8226. Description: NCI-60 one-dose SRB screening. The conditions noted are these: Homo sapiens, RPMI-8226, Leukemia, 10 µM one dose, 48 h, read-out: growth percentage. The procedure: as §1, §2, §3, §4, §5
The test system of a further assay is SN12C. The assay can be described thus: NCI-60 one-dose SRB screening. The conditions noted are these: Homo sapiens, Renal Cancer, 10 µM one dose, 48 h, read-out: growth percentage. On the procedure:
as §1, §2, §3, §4, §5

The next assay has as its system HOP-62. Description: NCI-60 one-dose SRB screening. The conditions noted are these: Homo sapiens, HOP-62, Non-Small Cell Lung Cancer, 10 µM one dose, 48 h, read-out: growth percentage. On the procedure: as §1, §2, §3, §4, §5
The test system of another assay is SF-539. Description: NCI-60 one-dose SRB screening. The conditions noted are these: Homo sapiens, SF-539, CNS Cancer, 10 µM one dose, 48 h, read-out: growth percentage. On the procedure: as §1, §2, §3, §4, §5
In another assay the test system is HS 578T. Description: NCI-60 one-dose SRB screening. To be noted: Homo sapiens, Breast Cancer, 10 µM one dose, 48 h, read-out: growth percentage. The procedure:
as §1, §2, §3, §4, §5

In the next assay the test system is HCT-116. The assay can be described thus: NCI-60 one-dose SRB screening. To be noted: Homo sapiens, HCT-116, Colon Cancer, 10 µM one dose, 48 h, read-out: growth percentage. The procedure:
as §1, §2, §3, §4, §5

In the next assay the test system is NCI/ADR-RES. The assay can be described thus: NCI-60 one-dose SRB screening. The conditions noted are these: Homo sapiens, Ovarian Cancer, 10 µM one dose, 48 h, read-out: growth percentage. On the procedure:
as §1, §2, §3, §4, §5

Another assay has as its system SK-MEL-2. Description: NCI-60 one-dose SRB screening. The conditions noted are these: Homo sapiens, SK-MEL-2, Melanoma, 10 µM one dose, 48 h, read-out: growth percentage. The procedure:
as §1, §2, §3, §4, §5

For a further assay, the system named is SK-MEL-28. Description: NCI-60 one-dose SRB screening. The conditions noted are these: Homo sapiens, SK-MEL-28, Melanoma, 10 µM one dose, 48 h, read-out: growth percentage. The procedure: as §1, §2, §3, §4, §5
The test system of the next assay is NCI-H322M. Description: NCI-60 one-dose SRB screening. The conditions noted are these: Homo sapiens, Non-Small Cell Lung Cancer, 10 µM one dose, 48 h, read-out: growth percentage. On the procedure:
as §1, §2, §3, §4, §5

The next assay deals with NCI-H460. Description: NCI-60 one-dose SRB screening. The conditions noted are these: Homo sapiens, NCI-H460, Non-Small Cell Lung Cancer, 10 µM one dose, 48 h, read-out: growth percentage. On the procedure:
as §1, §2, §3, §4, §5

A further assay deals with HOP-92. Description: NCI-60 one-dose SRB screening. The conditions noted are these: Homo sapiens, HOP-92, Non-Small Cell Lung Cancer, 10 µM one dose, 48 h, read-out: growth percentage. The procedure: as §1, §2, §3, §4, §5
The subject of a further assay is U251. The assay can be described thus: NCI-60 one-dose SRB screening. To be noted: Homo sapiens, U-251, U251, CNS Cancer, 10 µM one dose, 48 h, read-out: growth percentage. The procedure: as §1, §2, §3, §4, §5
For the next assay, the system named is HT29. Description: NCI-60 one-dose SRB screening. To be noted: Homo sapiens, HT-29, HT29, Colon Cancer, 10 µM one dose, 48 h, read-out: growth percentage. The procedure:
as §1, §2, §3, §4, §5

The test system of the next assay is A549/ATCC. The assay can be described thus: NCI-60 one-dose SRB screening. The conditions noted are these: Homo sapiens, Non-Small Cell Lung Cancer, 10 µM one dose, 48 h, read-out: growth percentage. The procedure: as §1, §2, §3, §4, §5
Another assay has as its system UACC-257. Description: NCI-60 one-dose SRB screening. To be noted: Homo sapiens, UACC-257, Melanoma, 10 µM one dose, 48 h, read-out: growth percentage. On the procedure:
as §1, §2, §3, §4, §5

On to `Cc1nn(-c2ccccc2)c2ncnc(Nc3ccc(OCc4c(-c5ccccc5)no[n+]4[O-])cc3)c12` [6c, 3-((4-((3-methyl-1-phenyl-1H-pyrazolo[3,4-d]pyrimidin-4-yl)amino)phenoxy)methyl)-4-phenyl-1,2,5-oxadiazole 2-oxide], for which the inhibition at 10 µM in assay [1] fell in the range of 1.58 to 4.57%. The activity at 10 µM in assay [1] was 96.2%; in the assay on MCF7, 83%; in the assay with OVCAR-8, 101%; in the assay with SNB-19 it was 101%; in the assay on CAKI-1, 86%; in the assay with RPMI-8226, 94%. Besides, the activity at 10 µM came out at 87.9% with SN12C; 105% in the assay on HOP-62; 96.2% in the assay on SF-539; 97.5% with HS 578T; 81.8% in the assay with HCT-116; 91.7% in the assay on NCI/ADR-RES. Also, the activity at 10 µM came to 103% in the assay with SK-MEL-2; 102% in the assay on SK-MEL-28; 91% with NCI-H322M; 109% in the assay with NCI-H460; 91.2% in the assay with HOP-92; 97.2% in the assay with U251. The activity at 10 µM in the assay with HT29 is 93.2%; with A549/ATCC, 99.3%; with UACC-257, 105%.
As for `Cc1nn(-c2ccc(Br)cc2)c2ncnc(Nc3ccc(OCc4c(-c5ccccc5)no[n+]4[O-])cc3)c12` [6g, 3-((4-((1-(4-bromophenyl)-3-methyl-1H-pyrazolo[3,4-d]pyrimidin-4-yl)amino)phenoxy)methyl)-4-phenyl-1,2,5-oxadiazole 2-oxide], the inhibition at 10 µM in assay [1] is 1.58 to 4.57%. For the same molecule, the activity at 10 µM in assay [1] was 98.4%; with MCF7, 89%; in the assay on OVCAR-8, 93.9%; with SNB-19, 99.2%; with CAKI-1, 84.9%; with RPMI-8226, 108%. In addition, the activity at 10 µM was found to be 91.3% in the assay with SN12C; 94% in the assay with HOP-62; 90.4% with SF-539; 93.4% with HS 578T; 90.7% in the assay with HCT-116; 93.8% in the assay on NCI/ADR-RES. Besides, the activity at 10 µM with SK-MEL-2 is 101%; in the assay with SK-MEL-28, 99.5%; in the assay with NCI-H322M, 94.5%; in the assay on NCI-H460, 100%; in the assay on HOP-92 it was 86.5%; with U251 it was 102%. In addition, the activity at 10 µM in the assay with HT29 is 101%; with A549/ATCC it was 97.3%; with UACC-257 it was 97.1%.
Regarding `Cc1nn(-c2ccc(Br)cc2)c2nc(CNc3ccc(NCc4c(-c5ccccc5)no[n+]4[O-])cc3)[nH]c(=O)c12` [14c, 3-(((4-(((1-(4-bromophenyl)-3-methyl-4-oxo-4,5-dihydro-1H-pyrazolo[3,4-d]pyrimidin-6-yl)methyl)amino)phenyl)amino)methyl)-4-phenyl-1,2,5-oxadiazole 2-oxide], the activity at 10 µM in assay [1] came out at 103%; with MCF7, 88.1%; with OVCAR-8, 112%; in the assay with SNB-19, 102%; with CAKI-1, 90.2%; with RPMI-8226, 112%. The activity at 10 µM in the assay with SN12C is 98.8%; in the assay on HOP-62, 116%; with SF-539, 102%; in the assay with HS 578T, 108%; in the assay with HCT-116, 93.8%; in the assay with NCI/ADR-RES it was 101%. Further, the activity at 10 µM in the assay on SK-MEL-2 was 107%; in the assay on SK-MEL-28, 103%; in the assay with NCI-H322M it was 104%; in the assay with NCI-H460, 107%; in the assay on HOP-92 it was 108%; in the assay with U251, 99.1%. Further, the activity at 10 µM turned out to be 110% with HT29, 97.4% in the assay on A549/ATCC and 101% with UACC-257. Further, the “enhancement of the growth percentage (mean)” value in assay [1] came out at 3.35%.
For the molecule `Cc1nc(Nc2ccc(OCc3c(-c4ccccc4)no[n+]3[O-])cc2)c2cnn(-c3ccccc3)c2n1` [6b, 3-((4-((6-methyl-1-phenyl-1H-pyrazolo[3,4-d]pyrimidin-4-yl)amino)phenoxy)methyl)-4-phenyl-1,2,5-oxadiazole 2-oxide], the activity at 10 µM was 102% in [1]; 92.4% in the assay with MCF7; 105% in the assay with OVCAR-8; 99.3% with SNB-19; 87.6% in the assay on CAKI-1; 114% with RPMI-8226. The activity at 10 µM was determined as 101% in the assay on SN12C; 103% in the assay with HOP-62; 102% in the assay on SF-539; 110% with HS 578T; 99.2% with HCT-116; 103% in the assay on NCI/ADR-RES. Further, the activity at 10 µM in the assay on SK-MEL-2 is 109%; in the assay with SK-MEL-28 it was 101%; in the assay on NCI-H322M it was 99.5%; in the assay on NCI-H460 it was 111%; in the assay on HOP-92 it was 91.4%; in the assay on U251 it was 104%. For the same molecule, the activity at 10 µM worked out at 106% with HT29, 101% in the assay on A549/ATCC and 101% in the assay on UACC-257. In addition, in assay [1], the “enhancement of the growth percentage (mean)” value is listed as 1–5%.
